The test can be described thus: In vivo topical activity.

For the compound `CN(C)C1C(=O)C(C(N)=O)=C(O)C2(O)C(=O)C3=C(O)c4c(O)cccc4C(C)(O)C3CC12` (centres unmarked) [tetracycline], the “in vivo topical activity” value is recorded as “neither hexachlorophene nor tetracycline exhibit substantial in vivo topical activity”. For `Oc1c(Cl)cc(Cl)c(Cl)c1Cc1c(O)c(Cl)cc(Cl)c1Cl` [hexachlorophene], the “in vivo topical activity” value is “neither hexachlorophene nor tetracycline exhibit substantial in vivo topical activity”.
